The values below come from ChEMBL document CHEMBL1201862, “PubChem BioAssay data set” (2004).

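All cell lines were grown in 96-well plates and treated with compound for 48 hours. GI50 marks 50% less growth.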 Calls of active or inactive are those of the source. No stated cut-off is given here; in the data, active = GI50 up to about 1.1 µM and inactive = higher.

For orientation: GI50 means the concentration that inhibits growth by half.

What all share (assay): DTP human tumour cell line panel, 48 h
Assay [1] relates to COLO 205.
Assay [2] has as its system SNB-19.
The subject of assay [3] is HCC 2998.
The subject of assay [4] is NCI-H226.
Assay [5] has as its system CAKI-1.
Assay [6] concerns RXF 393.
In assay [7] the test system is LOX IMVI.
Assay [8] deals with SNB-75.
For assay [9], the system named is UACC-257.
In assay [10] the test system is NCI-H522.
Assay [11] has as its system HCT-15.
The test system of assay [12] is SR.
Assay [13] relates to SF-268.
Assay [14] concerns ACHN.
Assay [15] concerns OVCAR-8.
Assay [16] concerns NCI/ADR-RES.
In assay [17] the test system is MCF7.
Assay [18] has as its system PC-3.
Assay [19] relates to T47D.

For `CC1NOC(=O)C1/N=N/c1ccccc1Br` (stereo not drawn), the GI50 was 20.6 µM (inactive) in assay [1]; 37.4 µM (inactive) in assay [2]; 41.2 µM (inactive) in assay [3]; 31.6 µM (inactive) in assay [4]; 16.8 µM (inactive) in assay [5]; 13.9 µM (inactive) in [6]. In addition, the GI50 was 23.9 µM (inactive) in assay [7]; 31.4 µM (inactive) in [8]; 24 µM (inactive) in assay [9]; 18.5 µM (inactive) in assay [10]; 28.4 µM in [11]; 25.1 µM (inactive) in assay [12]. The values for the GI50 in [13], in [14] and in [15] were 28.4 µM (inactive), 35.3 µM (inactive) and 22 µM (inactive), respectively.
With `CC(=O)NC1C(OCc2ccccc2)OC(COC(=O)CCCCCCCCCCNC(=O)CCNc2ccc([N+](=O)[O-])c3[nH]c4ccc(O)cc4c(=O)c23)C(O)C1OC(C)C(=O)N[C@H](C(=O)N[C@H](CCC(=O)O)C(N)=O)C(C)C` (stereo partly drawn), the GI50 in assay [1] is 32.4 µM (inactive); in assay [2], 46.9 µM (inactive); in [3], 23.8 µM (inactive); in [4], 36.3 µM (inactive); in assay [5] it was > 100 µM (inactive); in assay [6], 69.3 µM (inactive). The GI50 was 28.8 µM (inactive) in [7]; 17.1 µM (inactive) in assay [8]; > 100 µM (inactive) in assay [9]; 17.4 µM (inactive) in assay [10]; over 100 µM in assay [11]; 20 µM (inactive) in assay [12]. Besides, the GI50 was > 100 µM (inactive) in assay [13], 60.7 µM (inactive) in assay [14] and > 100 µM (inactive) in assay [15].
For `O=C1/C(=C/c2ccc(Cl)cc2)NC(=S)N1CN1CCOCC1`, the GI50 in [1], in assay [16], in assay [17], in assay [2], in assay [4] and in [7] was > 100 µM (inactive) throughout. Further, the GI50 in assay [8] is > 100 µM (inactive); in [9], > 100 µM (inactive); in assay [18] it was > 100 µM (inactive); in assay [11], over 100 µM; in assay [13], > 100 µM (inactive); in assay [14] it was > 100 µM (inactive). Also, the GI50 in assay [15] is > 100 µM (inactive).
`Cc1cn2c(/C=N/NC(=N)N)c(-c3ccc(Cl)c([N+](=O)[O-])c3)nc2s1`: the GI50 in assay [1] was 0.661 µM (active); in [16], > 28.5 µM (inactive); in [17], 0.895 µM (active); in [4] it was 1.89 µM (inactive); in [5], 3.36 µM (inactive); in assay [6] it was 0.59 µM (active). Further, the concentration for 50% growth inhibition (GI50) in assay [7] is 0.409 µM (active); in [8] it was 1.27 µM (inactive); in assay [9], 0.178 µM (active); in assay [10], 0.16 µM (active); in assay [18] it was 1.58 µM (inactive); in assay [11] it was 1.7 µM. Besides, the GI50 in [13] is 1.23 µM (inactive); in assay [14], 1.76 µM (inactive); in [15], 0.416 µM (active).
Consider `CN/N=C(/CC(=O)c1sc(-n2nc(-c3ccccc3)cc2-c2ccccc2)nc1C)C(=O)Nc1ccc(Cl)c(Cl)c1`, for which the GI50 was 28.9 µM (inactive) in [1]; > 100 µM (inactive) in [2]; 44.3 µM (inactive) in [3]; 17.2 µM (inactive) in assay [4]; 14.7 µM (inactive) in [5]; 26.2 µM (inactive) in [6]. In addition, the GI50 in assay [7] is 22.5 µM (inactive); in assay [9], 30.6 µM (inactive); in assay [10] it was 28.1 µM (inactive); in assay [11], 31.3 µM; in [12] it was 29.3 µM (inactive); in assay [13], 35.2 µM (inactive). For the same molecule, the GI50 was 25.1 µM (inactive) in [14] and 51.1 µM (inactive) in assay [15].
Regarding `S=C1/C(=N/c2ccccc2)N(C2CCCCC2)/C(=N\C2CCCCC2)N1c1ccccc1`, the GI50 is 82.6 µM (inactive) in [19]; 47.6 µM (inactive) in assay [1]; > 100 µM (inactive) in assay [16]; 47.2 µM (inactive) in assay [2]; 86.5 µM (inactive) in assay [3]; > 100 µM (inactive) in assay [4]. For the same molecule, the GI50 in [5] is > 100 µM (inactive); in assay [6] it was > 100 µM (inactive); in assay [7] it was > 100 µM (inactive); in assay [8], > 100 µM (inactive); in assay [9], > 100 µM (inactive); in [10], 6.73 µM (inactive). The GI50 in [18] was 63.8 µM (inactive); in [11] it was over 100 µM; in assay [12] it was > 100 µM (inactive); in [13], > 100 µM (inactive); in assay [14] it was > 100 µM (inactive); in assay [15], > 100 µM (inactive).
With `CNC(=O)OCc1nc(SC(C)C)n(C)c1COC(=O)NC`, the GI50 in assay [1], in assay [16], in assay [17], in [2], in assay [3] and in assay [4] was > 100 µM (inactive) each time. In addition, the GI50 in assay [5] was > 72.3 µM (inactive); in assay [6], 33.4 µM (inactive); in assay [7], > 100 µM (inactive); in assay [8] it was > 100 µM (inactive); in [9], > 100 µM (inactive); in assay [10] it was 58.5 µM (inactive). In addition, the GI50 in [11] is over 100 µM; in [12], > 100 µM (inactive); in assay [13], > 91.6 µM (inactive); in assay [14] it was > 100 µM (inactive); in [15] it was > 100 µM (inactive).
With `CC(=O)NNc1nc(C)c(C(=O)NNC(=O)C(=O)Nc2ccc(C)c(C)c2)s1`, the GI50 in assay [1], in assay [2], in [3], in assay [4], in assay [5] and in assay [6] was > 100 µM (inactive) throughout. In addition, the GI50 in assay [7] was 16.7 µM (inactive); in assay [8], > 100 µM (inactive); in assay [9], > 100 µM (inactive); in assay [10], 18.5 µM (inactive); in assay [11], 78.9 µM; in assay [12], 54.1 µM (inactive). For the same molecule, the GI50 in assay [13] was > 100 µM (inactive); in assay [14], > 100 µM (inactive); in assay [15] it was 55.5 µM (inactive).
In the case of `NC(=O)Cn1c(=O)oc2cc(C(=O)CN3CCOCC3)ccc21`, the GI50 in assay [1], in [16], in assay [17], in assay [2], in assay [4] and in [5] was > 100 µM (inactive) each time. Moreover, the GI50 in assay [6] was > 100 µM (inactive); in [7], > 100 µM (inactive); in assay [8] it was 18.5 µM (inactive); in [18], > 100 µM (inactive); in [12], > 100 µM (inactive); in assay [13], > 100 µM (inactive). In addition, in [15], the GI50 was > 100 µM (inactive).
For `[N-]=[N+]=NC(CI)c1cn([C@H]2C[C@H](O)[C@@H](CO)O2)c(=O)[nH]c1=O` (stereo partly drawn), the GI50 in assay [1] was > 100 µM (inactive); in assay [2], > 100 µM (inactive); in assay [3], 85.1 µM (inactive); in [4], > 100 µM (inactive); in assay [5], > 100 µM (inactive); in [6], > 100 µM (inactive). Further, the GI50 in assay [7] is > 100 µM (inactive); in [8], > 100 µM (inactive); in assay [10], > 100 µM (inactive); in assay [11] it was over 100 µM; in [12], > 100 µM (inactive); in assay [14], > 100 µM (inactive). Further, in assay [15], the GI50 was > 100 µM (inactive).
